How the values were obtained:
E. amylovora S435 [1] = experiment: Agar disc diffusion assay of cell-free supernatants and fractions; type: cell-based, Erwinia amylovora; details: active fraction from bioassay-guided fractionation
Experimental: To obtain cell-free supernatants, cultures of both strains were centrifuged at 25 000 rpm for 1 hour. The pellets were discarded and the supernatants were filtered using Stericup™ vacuum filtration system (0.2 μm). Fresh cell-free supernatants were used for the present research, but they could also be stored at +4° C. for one week, or at −20° C. for 6 months, while keeping their activity.
1 L of each bacterial culture was combined, and biomass was removed by centrifugation at 17 700×g for 20 min. The cell-free medium supernatant was applied to 40 g of pre-equilibrated Amberlite™ XAD-16 resin packed in a column. The XAD-16 column was subsequently washed with 1 L of H2O, and then eluted with 1 L of 100% methanol. The methanolic elution was evaporated to dryness by rotary evaporation, and the brown residue was redissolved in 5 ml of purified water (Milli-Q system; Millipore, Bedford, Mass.). The concentrated solution was then applied onto a 12 gram Biotage® SNAP Ultra C18 column to be fractionate using reverse-phase flash chromatography on a Biotage (Stockholm, Sweden) Isorela One instrument. This chromatography was performed using a linear gradient acetonitrile from 5% to 100% over 50 min at 15 ml min^−1. […] The bioactivity of these fractions was further determined by performing agar disc diffusion assay. […]

[2] = test system: Erwinia amylovora strain S01; experiment: Field trial to control fire blight on Rome apple trees, Geneva NY; type: in vivo
Experimental: A field trial was conducted to determine the performance of the formulated product based on the vegetative cells of Pseudomonas poae FL10F and its extracellular metabolites produced in the supernatants and was compared to antibiotic (FireWall 17 WP Streptomycin), copper fungicide (Cueva, Certis, USA) and the biological product Blossom Protect based on two strains of Aureobasidium pullulans. […] Both antibiotic and copper that were used in this trial were EPA registered products. Pseudomonas poae FL10F was cultivated for 2 days at 30° C. and 200 rpm and reached an OD600 nm=2.50, which was empirically determined to represent 2.50×10^9 CFU/mL by plating serial dilutions of the suspension and counting colonies. A 4L of product based on Pseudomonas poae FL10F and its metabolites was produced as described above and was sprayed more than 2 months later on apple Rome trees. Three samples of this formulated product were retained in sterile 50 mL polypropylene centrifuge tubes at room temperature for long-term activity and bacterial count studies.
The 4L product was used during in a field trial conducted in Phelps, (Geneva) NY to evaluate the product against fire blight. Apple Rome were used for this study that had 5 to 12 blossom clusters per tree. These were 1-year-old trees from Waffler Nursery, Wolcott, N.Y.
The experimental treatments were applied using a CO2 Backpack sprayer that was calibrated to deliver 100 gallons per acre (Trees were sprayed to first drip with a “dilute” solution of products.) The sprayer was calibrated at 42 PSI and used 2 Hollow Cone (TXVK18) Nozzles.
An evaluation of treatments was conducted using the method where scissors were dipped into a solution of a streptomycin sensitive Erwinia amylovora strain S01, and the two smallest leaves on each terminal or shoot were cut in half. This severe test is used to simulate infection that can occur following hailstorms. The scissors were dipped into the Erwinia amylovora S01 solution prior to each cut. The apical terminal shoot and the terminal leaves on any side shoots were cut. For the size of these trees, the number of terminals that were cut varied from 9 to 18. To evaluate the treatments for this method, each treatment was applied as before to all leaves and shoots of seven individual trees. The inoculations occurred near dusk, and 1.15 inches of rain occurred during the overnight period. All treatments were applied 30 minutes before the infection and then re-applied 24 hours after the initial inoculation. The second application of treatments was applied to the same trees. The product based on Fluorescent Pseudomonas poae FL10F and its metabolites was first diluted at a concentration of 20% (w/w) with water then it was mixed properly and sprayed.
At 3 weeks following the scissor inoculation, each terminal shoot was rated for the length in inches with typical symptoms of fire blight (rated as SEVERITY). Then the percentage of all shoots that had any symptoms of fire blight was calculated as INCIDENCE).
The objective of this trial was to compare the activity of P. poae FL with antibiotic (Streptomycin), copper fungicide (Cueva, Certis, USA) and the biological product Blossom Protect based on two strains of Aureobasidium pullulans (Porter et al., 1960). Apple trees were infected with […] CFU/mL solution of Erwinia amylovora. The concentration of various treatments applied are represented in Table 13. The medium used in Treatment 7 is the same one used to cultivate the P. poae FL composed of Nutrient Broth NB (Difco) supplemented with 0.5% (w/w) glycerol and a concentration of 4% NaCl (w/w). Neither the medium nor the treatments used were phytotoxic to apple leaves and no phytotoxicity was noted on the apple trees in this study.

E. amylovora S435 [3] = experiment: Management of fire blight on shoots of potted McIntosh apple trees; type: in vivo, Erwinia amylovora; details: treated 2 h after inoculation, formulations diluted to 20%, streptomycin 100 ppm, 10 d
Experimental: A trial was conducted at the IRDA research station in Saint-Bruno-de-Montarville, Québec to evaluate the efficacies of the best isolates previously screened. To simulate fire blight, Malus x domestica ‘McIntosh’ cultivar trees were inoculated then treated 2 h later with 20% (w/w) isolate dilutions. Inoculum was obtained by suspending a 5-d culture of the virulent strain E. amylovora […] in potassium phosphate buffer (pH=6.5) in King B agar which favors the growth of this phytopathogen. The bacterial density was adjusted to ˜1×10^9 CFU/mL. Actively growing potted trees (cv. McIntosh grafted onto M26) were inoculated by transversely bisecting the two youngest leaves with scissors dipped in the inoculum. One or two shoots were inoculated per tree. Two hours after inoculation, candidate biological control agent suspensions were sprayed to runoff onto five trees per treatment using a low-pressure sprayer. The experimental design was completely randomized.
Inoculated controls were sprayed either with water or with the medium used to formulate the candidate biocontrol products. Uninoculated controls were sprayed only with water. […] Severity scores were analyzed with a cumulative link mixed model (clmm) in the “ordinal” package of R. Treatment and observation date were used as fixed effects. […]

[4] = 3 weeks, Strepmycin 2.4 oz wt/a

Row | Compound | inhibition halos of the extracellular metabolite fraction on a lawn of E. amylovora S435 (E. amylovora S435 [1]) | Fire blight Severity: Average length of shoot with symptoms of Fire blight ([2]; 3 weeks after scissor inoculation, Strepmycin 8 oz wt/a, Cueva 64 fl oz/a, P. poae FL10F 20 % v/v, Blossom Protect 20 oz wt/a) [INCHES] | Fire blight Incidence: Average percentage of shoots with symptons of Fire blight following inoculation [2, 4] [%] | Fire blight Severity: Average length of shoot with symptoms of Fire blight [2, 4] [INCHES] | Fire blight Incidence: Average percentage of shoots with symptons of Fire blight following inoculation ([2]; 3 weeks, Strepmycin 8 oz wt/a, Cueva 64 fl oz/a, P. poae FL10F 20 % v/v, Blossom Protect 20 oz wt/a) [%] | Phytotoxicity: Percentage of leaves with atypical symptoms ([2]; Strepmycin 2.4 oz wt/a) [%] | Phytotoxicity: Percentage of leaves with atypical symptoms ([2]; Strepmycin 8 oz wt/a, Cueva 64 fl oz/a, P. poae FL10F 20 % v/v, Blossom Protect 20 oz wt/a) [%] | Median score (disease severity 0-4) (E. amylovora S435 [3])
1 | oxydifficidin | comparable in diameter to that of the live strain itself or crude extracellular metabolites therefrom | – | – | – | – | – | – | –
2 | [H]/N=C(/N)N[C@H]1[C@H](O)[C@@H](O)[C@H](O[C@@H]2O[C@@H](C)[C@](O)(C=O)[C@H]2O[C@@H]2O[C@@H](CO)[C@H](O)[C@@H](O)[C@@H]2NC)[C@@H](N/C(N)=N\[H])[C@@H]1O [Streptomycin] | – | 3.89 | 81.73 | 5.53 | 52.39 | 0.00 | 0.00 | 0
3 | white line-inducing principle [WLIP] | comparable in diameter to that of the live strain itself or crude extracellular metabolites therefrom | – | – | – | – | – | – | –
